Read-outs that look alike come from different tables or passages of the source.
How the values were obtained:
[1] = system: enzymatic coupling reaction; assay: Influence on enzymatic coupling itself (50 μM GDP instead of GDP-fucose); format: biochemical; conditions: 50 μM GDP instead of 100 μM GDP-fucose
Procedure: (§1) In addition, the same operations were performed using 50 μM GDP instead of 100 μM GDP-fucose, and an influence of enzymatic coupling itself on gallic acid was studied. In addition, an amount of GDP produced was quantified by HPLC analysis using some of the reaction solution after the FUT7 enzymatic reaction, and an inhibitory activity was determined by an HPLC method.

[2] = molecular target: T1, human FUT7 (Homo sapiens, UniProt Q11130); assay: Inhibition of FUT7 measured by the enzymatic coupling fluorescence method of the invention; format: biochemical; conditions: method of the present invention, FUT7 1 μg/ml; read-out: IC50 value, inhibitory activity on FUT7
T1 sequence (Q11130 1-342): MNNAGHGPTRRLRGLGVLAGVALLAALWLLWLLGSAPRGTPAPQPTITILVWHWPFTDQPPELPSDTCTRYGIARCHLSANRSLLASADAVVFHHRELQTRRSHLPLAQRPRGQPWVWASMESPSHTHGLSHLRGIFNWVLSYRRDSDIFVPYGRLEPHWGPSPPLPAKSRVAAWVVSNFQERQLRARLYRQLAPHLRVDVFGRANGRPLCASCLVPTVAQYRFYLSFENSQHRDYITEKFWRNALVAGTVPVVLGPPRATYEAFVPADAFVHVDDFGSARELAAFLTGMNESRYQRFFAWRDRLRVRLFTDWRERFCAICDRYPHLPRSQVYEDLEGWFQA
Procedure: 100 μM GDP-fucose (2.5 μl), 6 mg/ml fetuin, and 0 to 4 μg/ml FUT7 (2.5 μl) were added to a 384-well microplate (a buffer solution included 50 mM Tris-HCl (pH 7.5), 5 mM MgCl2, 10 mM MnCl2, and 0.1% Triton X-100), covered with a plate seal (catalog number 1-6774-01 commercially available from AS ONE corporation) and incubated for 1 hour at 37° C. After being cooled to room temperature, the mixed solution A for the first process (5 μl) was added to the result and incubated for 1 hour at 25° C. The mixed solution B for the second process (10 μl) was added to the result, and incubated for 30 minutes at 25° C. Fluorescence thereof was measured similarly to Example 1. A fluorescence value according to an enzyme concentration was confirmed.
When enzyme activities of FUT7 were measured using the method described in Example 4, an inhibitory effect of gallic acid on FUT7 was studied according to the same operations as in Example 4 except that a reaction of FUT7 (a concentration of 1 μg/ml in a transglucosylation solution) was caused in the presence of gallic acid. A group containing no gallic acid was set as a control (an inhibition rate of 0%), a group containing no FUT7 was set as a control (an inhibition rate of 100%), and inhibition rates of gallic acid of respective concentrations of FUT7 were calculated.

[3] = molecular target: T1, human FUT7; conditions: reported in Arch. Biochem. Biophys, Vol. 425, No. 1, pp. 51-57, 2004; cited from earlier work
[4] = molecular target: T1, human FUT7; assay: Inhibition of FUT7 measured by HPLC quantification of produced GDP; format: biochemical; conditions: FUT7 1 μg/ml, read-out: IC50 value, inhibitory activity on FUT7
Procedure: as §1
HPLC conditions were as follows: column: YMC-Triart C18 (commercially available from Ymc Corporation, particle size: 5 μm, and diameter: 4.6 mm×length: 150 mm), eluate: 50 mM KH2PO4—K2HPO4 (10:1), flow rate: 1 ml/min, and detection: UV 260 nm.

[5] = molecular target: T2, CMPK1 (Homo sapiens, UniProt P30085); assay: Inhibition of CMPK1 measured by the enzymatic coupling fluorescence method; format: biochemical; conditions: enzymatic coupling with 20 mM N-ethylmaleimide; matched HPLC method
T2 construct: purchased Prospec pKa-002-b
T2 sequence (P30085 1-196): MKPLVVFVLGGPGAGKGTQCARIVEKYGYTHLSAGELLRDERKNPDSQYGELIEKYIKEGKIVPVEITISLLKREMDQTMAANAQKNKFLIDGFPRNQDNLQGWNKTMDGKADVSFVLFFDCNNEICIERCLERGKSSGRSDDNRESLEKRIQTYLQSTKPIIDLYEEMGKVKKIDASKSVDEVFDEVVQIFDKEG
Procedure: Enzyme inhibitory activities of Ap5A (P^1,P^5-Di(adenosine-5′)pentaphosphate) in which inhibitory activities of dictyostelium (Dictyostelium discoideum) on CMP kinase have been reported (J. Biol. Chem, Vol. 265, No. 11, pp. 6339-6345, 1990) on CMPK1 were measured using a method of the present invention. A 0 to 3 mM Ap5A (1 μl) (catalog number D4022 commercially available from Sigma-Aldrich) solution and 50 μM CMP (2 μl) were added to a 384-well microplate, and 200 μM ATP (2 μi), 3 μg/ml CMPK1, and 4 mM DTT were added thereto (a buffer solution composition included 100 mM Tris-HCl (pH 9), 13.5 mM MgCl2, 150 mM KCl, and 0.1% TritonX-100). The result was covered with a plate seal and incubated for 1 hour at 37° C. Then, the result was cooled at room temperature, and the mixed solution for enzymatic coupling (5 μl) containing 20 mM N-ethylmaleimide was added and incubated for 60 minutes at 25° C. in darkness. Then, fluorescence was measured using a plate reader. A group containing no Ap5A was set as a control (an inhibition rate of 0%), a group containing no CMPK1 was set as a control (an inhibition rate of 100%), and inhibition rates of Ap5A of respective concentrations on CMPK1 were calculated.

[6] = system: enzymatic coupling reaction; assay: Influence on enzymatic coupling itself (25 μM ADP instead of CMP); format: biochemical; conditions: 25 μM ADP instead of 50 μM CMP
Procedure: In addition, the same operations were performed using 25 μM ADP instead of 50 μM CMP, and an influence of Ap5A on enzymatic coupling itself was studied. In addition, some of the reaction solution after the kinase reaction of CMPK1 was used, an amount of produced CDP was measured by the HPLC analysis method described in Example 14, and an inhibitory activity was determined by an HPLC method.

Row | Compound | inhibition of the enzymatic coupling reaction itself [1] | IC50 [2] | IC50 [3] | IC50 [4] | inhibitory activity on CMPK1 [5] | inhibition of the enzymatic coupling reaction itself [6]
1 | O=C(O)c1cc(O)c(O)c(O)c1 [gallic acid] | did not inhibit the enzymatic coupling reaction itself at all | ~10 µM | 5.4 µM | ~10 µM |  | 
2 | Nc1ncnc2c1ncn2[C@@H]1O[C@H](COP(=O)(O)OP(=O)(O)OP(=O)(O)OP(=O)(O)OP(=O)(O)OC[C@H]2O[C@@H](n3cnc4c(N)ncnc43)[C@H](O)[C@@H]2O)[C@@H](O)[C@H]1O [Ap5A, P^1,P^5-Di(adenosine-5′)pentaphosphate] |  |  |  |  | inhibition of CMPK1 | did not inhibit the enzymatic coupling reaction itself at all

Reference: patent publication US20160289728A1, “METHOD FOR DETECTING FLUORESCENCE OR ABSORBANCE, METHOD FOR SUPPRESSING BACKGROUND, METHOD FOR MEASURING ADP, METHOD FOR MEASURING ACTIVITY OF ADP-SYNTHESIZING ENZYME, AND METHOD FOR MEASURING ACTIVITY OF GLUCOSYLTRANSFERASE” (The University of Tokyo, priority 2013, published 2016)
